# Reference: patent publication US4127722A, “Benzhydrylsulphinyl derivatives” (Laboratoire L. Lafon, priority 1975, dated 1978)
# Entries after “also recorded” stand apart in the source; their conditions may differ. Where a name gives a salt, the structure may show the parent alone.
# What was measured:
# groups of mice = experiment: Group toxicity; conditions: in words, comparison with amphetamine-type compounds
# [1] = General behaviour / psychopharmacological spectrum (species not stated); assay type: in vivo
# [2] = system: hypothermia, trembling and peripheral cholinergic symptoms brought about by oxotremorine; experiment: Interaction with oxotremorine; assay type: in vivo, mice
# Description: Mice (6 per dose) are given an intraperitoneal injection of 0.5 mg/kg of oxotremorine 30 minutes after the administration of CRL 40,028.
# mice [3] = experiment: General behaviour, mice; assay type: in vivo; conditions: at all the doses studied (toxicity test)
# [4] = system: stereotype behaviour caused by apomorphine; experiment: Interaction with apomorphine; assay type: in vivo, rats
# Description: Batches of 6 rats are given CRL 40,028 30 minutes after the subcutaneous injection of 0.5 mg/kg of apomorphine.
# [5] = system: motor activity after anoxia; experiment: Motor recovery after hypoxia aggression; assay type: in vivo, mice
# [6] = system: convulsive effects of the electric shock; experiment: Electric shock; assay type: in vivo, mice
# Description: (§1) The test is carried out on batches of 20 mice, 30 minutes after the administration of CRL 40,028.
# [7] = system: stereotype behaviour induced by amphetamine; experiment: Interaction with amphetamine; assay type: in vivo, rats
# Description: Amphetamine (2 mg/kg, given intraperitoneally) is injected 30 minutes after the administration of CRL 40,028 (6 rats/dose).
# passes which entail pain = experiment: Four plate test; assay type: in vivo, mice; conditions: mice
# Description: as §1
# residual motility = experiment: Residual motility; assay type: in vivo, mice; conditions: animals becoming accustomed to the chamber
# [8] = Toxicity, gastric administration, mice; conditions: mouse, in vivo, po
# mice [9] = experiment: Toxicity, intraperitoneal administration, mice; assay type: in vivo; conditions: i.p., 256 mg/kg, 512 mg/kg and 1,024 mg/kg
# [10] = Toxicity, intraperitoneal administration, mice; assay type: in vivo; conditions: mouse, in vivo, ip, intraperitoneal administration
# [11] = system: hypothermia and ptosis produced by reserpine; experiment: Interaction with reserpine; assay type: in vivo, mice
# Description: Batches of 6 mice are given an intraperitoneal injection of reserpine (2.5 mg/kg) 4 hours before the administration of CRL 40,028.
# spontaneous motility = experiment: Spontaneous motility (actimetry); assay type: in vivo, mice; conditions: for % relative to the control animals / % variation: rays crossed
# Description: CRL 40,028 increases the motor activity of the animals from a dose of 16 mg/kg onwards. As this effect is representative of the activity of CRL 40,028, attempts have been made to obtain its kinetics more precisely. […]
# central nervous system = experiment: Pharmacological tests: action on the central nervous system, overall profile; assay type: in vivo
# Description: The results of the pharmacological tests which were carried out have been summarised below.
# carrageenin oedema = experiment: Carrageenin oedema; assay type: in vivo
compound,measurement,setting,value
"O=C(C[S+]([O-])C(c1ccccc1)c1ccccc1)NO (stereo not shown) [CRL 40,028, benzhydrylsulphinylacetohydroxamic acid]",solubility,Solubility in water,< 1000 µg/mL
same,toxicity in the groups of mice,groups of mice,virtual absence of specific (?) toxicity
same,stereotypies,"[1]; Table IV, graded symbols",0
same,stimulant properties (overall),[1]; animal psychopharmacology,"stimulant properties, namely causing excitation and hyper-reactivity, and hypermotility"
same,stereotypies,"[1]; in words, comparison with amphetamine-type compounds",absence of stereotypies
same,Anti-oxotremorine action (peripheral),"[2]; Table IV, graded symbols",0
same,effect on hypothermic effect of oxotremorine,"[2]; mice, 64 mg/kg",not
same,effect on hypothermic effect of oxotremorine,"[2]; mice, 256, 16 and 4 mg/kg",moderately opposes the hypothermic effect of oxotremorine
same,effect on trembling brought about by oxotremorine,"[2]; mice, at all the doses",moderately reduces
same,"effect on peripheral cholinergic symptoms (salivation, lachrymation, defaecation)","[2]; mice, oxotremorine 0.5 mg/kg i.p.","does not alter the increase in salivation, lachrymation and defaecation"
same,excitation of the animal,mice [3],excitation of the animal was observed
same,Boosting action on apomorphine,"[4]; Table IV, graded symbols",0
same,boosting of the effect of apomorphine,"[4]; in words, comparison with amphetamine / caffeine",absence of boosting of the effect of apomorphine
same,activity on the stereotype behaviour caused by apomorphine,"[4]; rats, apomorphine 0.5 mg/kg s.c.",does not exert any activity
same,aggravation of the effects of hypoxia,[5]; comparison with caffeine,absence of an aggravation
same,motor activity after anoxia,"[5]; mice, 512, 128 and 32 mg/kg, vs control animals",markedly greater motor activity than that of the control animals
same,aggravation of the effects of electric shock,[6]; comparison with caffeine,absence of an aggravation
same,antagonism against convulsive effects of the electric shock,"[6]; mice, only at 256 mg/kg",a very moderate antagonism
same,Boosting action on amphetamine,"[7]; Table IV, graded symbols",0
same,boosting of the effect of amphetamine,[7]; in words,does not boost the action of amphetamine; also recorded: absence of boosting
same,effect on stereotype behaviour induced by amphetamine,"[7]; rats, amphetamine 2 mg/kg i.p.",does not produce an overall change in the stereotype behaviour induced by amphetamine
same,number of passes which entail pain,passes which entail pain; 4.1 mg/kg,a modest decrease in the number of such passes
same,number of passes which entail pain,passes which entail pain; 256 and 64 mg/kg,an increase in the number of passes which entail pain
same,decrease in motility,passes which entail pain; at no dose,"At no dose does CRL 40,028 bring about a major decrease in motility"
same,effect on residual motility,residual motility,stimulating effect
same,LD50,[8],1950 mg/kg
same,mortality,mice [9],no mortality was observed
same,LD50,[10],≤ 2050 mg/kg
same,Anti-reserpine action (ptosis),"[11]; Table IV, graded symbols",0
same,anti-reserpine effect,[11]; in words,absence of a marked antagonism to reserpine
same,hypothermia due to reserpine,[11]; in words,absence of a marked antagonism to hypothermia brought about by reserpine
same,effect on hypothermic effect of reserpine,"[11]; mice, 256 and 64 mg/kg, reserpine 2.5 mg/kg i.p.",partially counteracts the hypothermic effect of reserpine
same,effect on ptosis produced by reserpine,"[11]; mice, reserpine 2.5 mg/kg i.p.",does not resolve the palpebral ptosis
same,minimal effective dose,"spontaneous motility; Mus musculus, spontaneous motility, read-out: dose from which motor activity is increased",≥ 16 mg/kg
same,time in which hypermotility appears,"spontaneous motility; mice, 64 mg/kg",less than 30 minutes
same,time in which hypermotility disappears,"spontaneous motility; mice, 64 mg/kg",4 h
same,time of maximum hypermotility,"spontaneous motility; mice, 64 mg/kg",one
same,Number of rays crossed in 30 minutes,"spontaneous motility; mice, 64 mg/kg, - 30 mins",311
same,Number of rays crossed in 30 minutes,"spontaneous motility; mice, 64 mg/kg, - 1 hr",424
same,Number of rays crossed in 30 minutes,"spontaneous motility; mice, 64 mg/kg, - 2 hrs",376
same,Number of rays crossed in 30 minutes,"spontaneous motility; mice, 64 mg/kg, - 4 hrs",234
same,% relative to the control animals,"spontaneous motility; mice, 64 mg/kg, - 30 mins",155%
same,% variation,"spontaneous motility; mice, 64 mg/kg, - 30 mins",+55%
same,% relative to the control animals,"spontaneous motility; mice, 64 mg/kg, - 1 hr",212%
same,% variation,"spontaneous motility; mice, 64 mg/kg, - 1 hr",+112%
same,% relative to the control animals,"spontaneous motility; mice, 64 mg/kg, - 2 hrs",188%
same,% variation,"spontaneous motility; mice, 64 mg/kg, - 2 hrs",+88%
same,% relative to the control animals,"spontaneous motility; mice, 64 mg/kg, - 4 hrs",117%
same,% variation,"spontaneous motility; mice, 64 mg/kg, - 4 hrs",+17%
same,psychostimulant profile,central nervous system; comparison with amphetamine and caffeine,a psychostimulant which comes closer to caffeine
"[O-][S+](CCC1=NCCN1)C(c1ccccc1)c1ccccc1 (stereo not shown) [CRL 40,066, 2-(2-Benzhydrylsulphinyl-ether)-imidazoline hydrochloride]",anti-oedema effect,carrageenin oedema,an anti-oedema effect
same,action on the central nervous system,central nervous system; in words,an effect on the central nervous system
